According to patent EP0323740A2, “Linear analogs of atrial natriuretic peptides” (CALIFORNIA BIOTECHNOLOGY, INC., priority 1987, dated 1989):

Target: T1, ANP-receptor (Bos taurus, UniProt P10730)
T1 construct: endogenous in cells; host or cells: cultured BASM cells
T1 sequence (P10730 42-537): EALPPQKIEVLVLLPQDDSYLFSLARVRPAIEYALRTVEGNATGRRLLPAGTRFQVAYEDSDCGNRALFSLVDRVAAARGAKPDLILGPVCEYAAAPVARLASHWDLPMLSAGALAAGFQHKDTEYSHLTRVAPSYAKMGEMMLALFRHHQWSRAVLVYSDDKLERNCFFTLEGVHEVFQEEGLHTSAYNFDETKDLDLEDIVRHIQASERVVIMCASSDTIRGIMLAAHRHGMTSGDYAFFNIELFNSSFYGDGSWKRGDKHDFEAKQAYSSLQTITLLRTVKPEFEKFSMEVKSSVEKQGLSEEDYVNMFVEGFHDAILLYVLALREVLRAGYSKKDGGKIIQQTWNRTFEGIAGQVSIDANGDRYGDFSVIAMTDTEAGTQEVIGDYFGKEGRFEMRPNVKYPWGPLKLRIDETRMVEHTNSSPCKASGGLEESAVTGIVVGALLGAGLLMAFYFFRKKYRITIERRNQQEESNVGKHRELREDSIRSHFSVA
Test: competitive displacement receptor binding assay with (¹²⁵I)-rANP(126-150) on cultured cells
Set-up: species or system bovine
Settings: concentration of unlabeled peptide displacing 50% of maximal binding of 0.5 nM (¹²⁵I)-rANP(126-150); BASM cells; read-out: Ki(app)
Source text: Analogous "competitive displacement" receptor binding assays are considered commonplace in the art for examining specific ligand-receptor interactions.
Assuming these ANP analogs act at one or more ANP receptor sites, then increased receptor affinity should reflect increased biological potency.

Ki [nM]	Compound
> 500	CC[C@H](C)[C@H](NC(=O)[C@H](Cc1ccc(O)cc1)NC(=O)[C@@H](NC(=O)[C@H](CCCNC(=N)N)NC(=O)[C@@H](N)CC(=O)O)C(C)C)C(=O)N[C@@H](Cc1cnc[nH]1)C(=O)N1CCC[C@H]1C(=O)N[C@@H](Cc1ccccc1)C(=O)O [angiotensin II]
> 500	parathyroid hormone
